{"source": "patent US11959145B2", "about": "“Method for identifying interventions that control the translational activity of ribosomal proteins in differential mRNA expression” (priority 2009, dated 2024)", "system": "CYH2-PTC-FF reporter", "test": "dual luciferase (Firefly/Renilla) CYH2-PTC reporter assay", "assay_type": "cell-based, yeast", "description": "FIG. 1: Schematic representation of comparative dual luciferase PTC assay as employed here. Firefly (FF) and Renilla (R) in wild type (WT) yeast cells are compared with luminescence counts of a PTC-FF reporter (e.g. the CYH2-PTC-FF reporter) in wild type yeast cells, wherein a PTC reduces the FF protein and thus luminescence.\nFIG. 3: Gene dosage of ribosomal proteins modulates level of protein expression from PTC mRNAs. […] In FIG. 3B, a modulation of the expression of the FF/FF(PTC) reporter in selected ribosomal protein deletion strains is shown. In FIG. 3C, a modulation of expression of the LAMB3-FF/LAMB3(PTC)-FF reporter in selected ribosomal protein deletion strains is shown.\nThe yeast CYH2 was amplified from the genomic yeast DNA with the primers LG 751 and LG 752. The ATG of the CYH2 was left out to be in frame with the promoter and the firefly luciferase reporter. The 1.0 kb PCR product and pLBK 162 were digested with KpnI and SacI. The CYH2-PTC reporter was ligated in pLBK 162, thus generating pLBK 165 (FIG. 5f). […]\nThe reporter plasmids are to be transformed in the WT and ribosomal protein deletion strains. […] For testing the different levels of read-through a PTC containing reporter plasmid (e.g. pLBK 165) and for internal standard pLBK 164 are used. […]", "note": "Entries after “also recorded” stand apart in the source; their conditions may differ."}
{"substance": "gentamycin", "values": [{"measurement": "expression level of the CYH2-PTC-FF reporter", "setting": "RPL10/ΔRPL10 gene dosage reduced yeast strain, gentamycin added", "result": "not strong or not present at all; also recorded: does not contribute to alteration"}, {"measurement": "CYH2-PTC-FF level (Firefly signal)", "setting": "WT yeast strain (BY4743), gentamycin added as control", "result": "the signal increases; also recorded: induce an increase"}]}
